Measured values: ChEMBL document CHEMBL1201862, “PubChem BioAssay data set” (2004)
The source made the active and inactive calls.

Columns and labels:
Vero [1] = assay: host cell cytotoxicity of antiviral hits, dose response, cytotoxicity control for West Nile virus antiviral project, secondary assay (AID 1650); assay type: functional; conditions: Chlorocebus sabaeus
Vero [2] = assay: West Nile virus antiviral activity, cell-based, CPE readout (AID 1621); assay type: functional; conditions: Chlorocebus sabaeus
[3] = target: Solute carrier family 12 member 2/member 5 (Homo sapiens, UniProt P55011+Q9H2X9); assay: KCC2 and NKCC1 inhibition by rubidium flux, cell-based, NKCC1 counter-screen (AID 1734); assay type: functional, HEK293
[4] = target: Peroxisome proliferator-activated receptor gamma/Nuclear receptor coactivator 2 (Homo sapiens, UniProt P37231); assay type: functional;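 further: agonist potency for raising coactivator recruitment to the receptor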
Peroxisome proliferator-activated receptor gamma/Nuclear receptor coactivator 2, sequence (P37231 whole entry): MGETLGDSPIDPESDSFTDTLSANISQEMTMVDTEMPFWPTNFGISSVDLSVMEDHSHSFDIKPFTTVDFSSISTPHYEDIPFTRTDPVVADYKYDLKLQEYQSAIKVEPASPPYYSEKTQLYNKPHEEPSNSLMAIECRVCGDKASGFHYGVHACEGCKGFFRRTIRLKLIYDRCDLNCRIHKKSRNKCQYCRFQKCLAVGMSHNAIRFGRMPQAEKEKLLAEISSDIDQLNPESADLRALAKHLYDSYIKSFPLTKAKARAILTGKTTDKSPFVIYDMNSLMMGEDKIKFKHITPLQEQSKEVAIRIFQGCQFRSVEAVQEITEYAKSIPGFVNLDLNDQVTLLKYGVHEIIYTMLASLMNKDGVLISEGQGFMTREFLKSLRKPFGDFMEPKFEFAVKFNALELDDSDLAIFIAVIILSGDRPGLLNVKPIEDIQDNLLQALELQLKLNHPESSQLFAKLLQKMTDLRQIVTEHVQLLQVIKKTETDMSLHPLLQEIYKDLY
Peroxisome proliferator-activated receptor gamma/Nuclear receptor coactivator 2, sequence (Q15596 whole entry, further chain): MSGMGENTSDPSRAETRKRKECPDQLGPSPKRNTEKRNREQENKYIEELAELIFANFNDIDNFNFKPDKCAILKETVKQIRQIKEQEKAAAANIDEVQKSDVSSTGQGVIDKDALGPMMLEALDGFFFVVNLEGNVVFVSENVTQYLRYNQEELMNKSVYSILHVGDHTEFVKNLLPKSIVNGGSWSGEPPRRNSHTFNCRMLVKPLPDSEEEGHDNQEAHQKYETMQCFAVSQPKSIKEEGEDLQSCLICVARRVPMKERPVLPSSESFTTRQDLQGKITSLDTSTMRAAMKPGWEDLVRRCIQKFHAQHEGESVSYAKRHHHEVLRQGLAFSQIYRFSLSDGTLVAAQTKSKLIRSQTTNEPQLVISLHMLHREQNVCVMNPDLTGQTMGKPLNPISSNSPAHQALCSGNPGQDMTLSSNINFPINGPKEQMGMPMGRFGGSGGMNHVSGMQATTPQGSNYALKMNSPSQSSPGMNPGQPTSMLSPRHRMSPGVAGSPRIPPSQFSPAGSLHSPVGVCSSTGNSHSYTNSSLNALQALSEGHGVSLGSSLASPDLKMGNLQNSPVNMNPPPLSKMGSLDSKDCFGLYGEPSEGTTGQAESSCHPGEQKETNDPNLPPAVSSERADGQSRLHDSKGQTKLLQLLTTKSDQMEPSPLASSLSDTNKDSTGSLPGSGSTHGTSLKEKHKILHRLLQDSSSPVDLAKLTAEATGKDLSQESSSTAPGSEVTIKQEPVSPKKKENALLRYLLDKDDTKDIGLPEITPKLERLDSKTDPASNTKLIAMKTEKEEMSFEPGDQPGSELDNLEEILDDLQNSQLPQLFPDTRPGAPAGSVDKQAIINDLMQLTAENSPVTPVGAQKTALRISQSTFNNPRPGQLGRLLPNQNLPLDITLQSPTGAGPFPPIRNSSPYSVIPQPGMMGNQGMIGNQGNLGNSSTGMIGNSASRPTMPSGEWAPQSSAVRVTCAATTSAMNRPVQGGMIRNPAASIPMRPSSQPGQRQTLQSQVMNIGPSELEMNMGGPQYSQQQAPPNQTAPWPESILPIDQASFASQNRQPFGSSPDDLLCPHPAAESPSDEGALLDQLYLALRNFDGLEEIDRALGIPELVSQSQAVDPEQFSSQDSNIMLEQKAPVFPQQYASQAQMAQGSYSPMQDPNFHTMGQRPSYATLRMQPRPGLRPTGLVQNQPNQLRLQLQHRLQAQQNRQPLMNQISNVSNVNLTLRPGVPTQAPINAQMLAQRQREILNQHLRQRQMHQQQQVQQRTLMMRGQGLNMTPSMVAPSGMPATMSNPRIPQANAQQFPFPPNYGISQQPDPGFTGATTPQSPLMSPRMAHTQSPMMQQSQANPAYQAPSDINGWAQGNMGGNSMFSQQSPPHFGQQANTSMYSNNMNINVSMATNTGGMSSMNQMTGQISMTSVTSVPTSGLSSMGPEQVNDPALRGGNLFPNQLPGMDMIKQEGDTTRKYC

Genome polyprotein = Genome polyprotein (Hepatitis C virus, UniProt Q2Q167); assay: HCV core protein dimerization inhibitors, dose response, biochemical, TR-FRET (AID 2159); design: species or system Hepacivirus hominis;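 further: blocks dimerization of HCV core protein measured by TR-FRET between tagged core106 pairs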
[5] = target: Peroxisome proliferator-activated receptor gamma/Nuclear receptor coactivator 1 (Homo sapiens, UniProt P37231); assay type: functional;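 further: agonist potency as compounds enhance coactivator SRC-1 recruitment to PPARgamma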
[6] = target: Peroxisome proliferator-activated receptor gamma/Nuclear receptor coactivator 3 (Homo sapiens, UniProt P37231); assay type: functional;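 further: agonist potency for raising coactivator recruitment to the receptor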
[7] = inhibitors of intracellular T. cruzi replication, confirmation, NIH3T3 host cells, beta-gal luminescence (AID 2044); assay type: functional, cell-based;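 further: intracellular parasites grown in NIH/3T3 mouse fibroblasts as host cells; luminescent beta-galactosidase reporter signal from transgenic T. cruzi replicating inside host cells; inhibitors lower the luminescence signal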
NADPH oxidase 1 [8] = target: T1, NADPH oxidase 1 (Homo sapiens, UniProt Q9Y5S8); assay type: functional, cell-based
T1 sequence (Q9Y5S8 whole entry): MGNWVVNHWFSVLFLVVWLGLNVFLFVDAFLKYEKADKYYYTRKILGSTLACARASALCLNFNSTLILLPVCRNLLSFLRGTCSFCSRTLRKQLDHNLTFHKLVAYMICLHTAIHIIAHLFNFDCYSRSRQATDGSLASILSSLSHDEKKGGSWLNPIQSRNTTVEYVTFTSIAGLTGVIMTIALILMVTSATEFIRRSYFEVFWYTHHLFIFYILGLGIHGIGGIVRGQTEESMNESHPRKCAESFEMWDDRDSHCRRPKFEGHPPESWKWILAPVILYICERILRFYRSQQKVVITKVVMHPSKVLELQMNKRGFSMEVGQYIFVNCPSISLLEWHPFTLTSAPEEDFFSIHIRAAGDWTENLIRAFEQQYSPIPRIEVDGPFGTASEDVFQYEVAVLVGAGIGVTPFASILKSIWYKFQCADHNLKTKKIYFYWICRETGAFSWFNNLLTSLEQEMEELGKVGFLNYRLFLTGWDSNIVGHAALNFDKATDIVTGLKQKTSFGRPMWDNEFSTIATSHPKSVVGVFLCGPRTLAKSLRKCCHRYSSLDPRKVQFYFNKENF

NADPH oxidase 1 [9] = target: T1, NADPH oxidase 1; assay: Luminescence-based cell-based dose response assay to identify inhibitors of NADPH oxidase 1 (NOX1).; assay type: functional
[10] = cytotoxicity toward NIH3T3 fibroblasts, dose response, counter-screen, cell-based, ATP luminescence, mouse fibroblasts (AID 2010); assay type: functional;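 further: cells exposed to compound for about 90 hours before reading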
[11] = target: T2, Rac GTPase-activating protein 1 (Homo sapiens, UniProt Q9H0H5); assay: MgcRacGAP GTPase-activating activity inhibitors, confirmation, biochemical, ADP Hunter fluorescence, primary and confirmatory (AID 624330); assay type: functional
T2 sequence (Q9H0H5 whole entry): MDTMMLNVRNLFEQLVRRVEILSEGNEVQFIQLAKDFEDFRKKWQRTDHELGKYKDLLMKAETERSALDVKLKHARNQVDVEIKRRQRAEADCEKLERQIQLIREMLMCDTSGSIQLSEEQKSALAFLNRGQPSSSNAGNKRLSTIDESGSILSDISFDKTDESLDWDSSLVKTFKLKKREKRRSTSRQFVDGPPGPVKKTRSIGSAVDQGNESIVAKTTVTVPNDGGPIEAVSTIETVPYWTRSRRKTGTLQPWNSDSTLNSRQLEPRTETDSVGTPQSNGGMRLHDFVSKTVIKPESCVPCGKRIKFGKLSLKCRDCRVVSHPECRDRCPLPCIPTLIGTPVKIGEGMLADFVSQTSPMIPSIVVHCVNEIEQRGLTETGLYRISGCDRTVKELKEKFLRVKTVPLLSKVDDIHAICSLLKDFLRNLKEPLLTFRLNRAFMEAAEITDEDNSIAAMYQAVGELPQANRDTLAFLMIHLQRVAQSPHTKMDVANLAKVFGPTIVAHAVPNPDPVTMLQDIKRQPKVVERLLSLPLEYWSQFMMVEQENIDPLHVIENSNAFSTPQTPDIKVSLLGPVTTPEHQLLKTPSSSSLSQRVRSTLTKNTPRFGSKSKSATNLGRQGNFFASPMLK

[12] = target: Neuropeptide Y receptor type 1 (Homo sapiens, UniProt P25929); assay type: functional;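 further: HEK293 cells with a CNG channel challenged with NPY then isoproterenol; potency as antagonist that reverses NPY suppression of cAMP signal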
Neuropeptide Y receptor type 1, sequence (P25929 whole entry): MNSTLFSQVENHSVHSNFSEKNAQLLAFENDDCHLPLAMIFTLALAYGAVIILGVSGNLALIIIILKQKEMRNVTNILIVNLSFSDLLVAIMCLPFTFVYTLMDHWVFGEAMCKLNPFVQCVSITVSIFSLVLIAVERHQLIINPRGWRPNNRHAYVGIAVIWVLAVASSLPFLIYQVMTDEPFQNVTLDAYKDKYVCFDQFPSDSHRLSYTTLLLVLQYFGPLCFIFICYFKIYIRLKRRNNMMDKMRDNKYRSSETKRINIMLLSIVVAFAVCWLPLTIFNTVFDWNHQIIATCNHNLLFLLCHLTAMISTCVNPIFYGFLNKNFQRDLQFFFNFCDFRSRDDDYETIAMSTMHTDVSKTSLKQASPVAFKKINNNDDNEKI

[13] = target: Neuropeptide Y receptor type 2 (Homo sapiens, UniProt P49146); assay type: functional, cell-based;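 further: HEK293 cells expressing the receptor and a CNG channel; stimulus was NPY near EC95 followed by isoproterenol to raise cAMP; antagonist potency measured as restoring cAMP signal that NPY suppresses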
SUMO-activating enzyme = SUMO-activating enzyme (Homo sapiens, UniProt Q9UBT2); assay: SUMOylation inhibitor hit validation, confirmation, SUMOylation inhibitor project, biochemical, AlphaScreen (AID 2018); assay type: functional
[14] = target: ATP-sensitive inward rectifier potassium channel 1 (Homo sapiens, UniProt P48048); assay: ROMK inhibition by analog compounds, SAR follow-up, cell-based, thallium flux, analog library (AID 435017); assay type: functional
ATP-sensitive inward rectifier potassium channel 1, sequence (P48048 whole entry): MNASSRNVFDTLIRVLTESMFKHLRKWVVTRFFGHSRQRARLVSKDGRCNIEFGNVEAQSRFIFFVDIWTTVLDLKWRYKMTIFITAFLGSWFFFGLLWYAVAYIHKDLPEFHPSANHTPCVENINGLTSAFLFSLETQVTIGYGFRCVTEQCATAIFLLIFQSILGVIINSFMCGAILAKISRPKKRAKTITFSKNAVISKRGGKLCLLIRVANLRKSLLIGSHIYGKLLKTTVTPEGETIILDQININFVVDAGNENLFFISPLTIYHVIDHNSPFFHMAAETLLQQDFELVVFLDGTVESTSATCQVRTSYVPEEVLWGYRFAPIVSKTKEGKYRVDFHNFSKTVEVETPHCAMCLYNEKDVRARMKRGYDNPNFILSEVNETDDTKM

[15] = target: 5-hydroxytryptamine receptor 1E (Homo sapiens, UniProt P28566); assay: Counterscreen assay for S1P3 antagonists: Dose response cell-based high throughput screening assay to identify antagonists of the 5-Hydroxytryptamine Receptor Subtype 1E (5HT1E). [Related pubchem assays: 1429, 485 ]; assay type: functional
[16] = target: Sphingosine 1-phosphate receptor 3 (Homo sapiens, UniProt Q99500); assay: Dose response cell-based high throughput screening assay for antagonists of the Sphingosine 1-Phosphate Receptor 3 (S1P3). [Related pubchem assays: 1429, 485 ]; assay type: functional
[17] = target: Disintegrin and metalloproteinase domain-containing protein 17 (Homo sapiens, UniProt P78536); assay: exosite inhibitors of ADAM17, dose response, biochemical (AID 743260)
Disintegrin and metalloproteinase domain-containing protein 17, sequence (P78536 whole entry, the tested form may be a part): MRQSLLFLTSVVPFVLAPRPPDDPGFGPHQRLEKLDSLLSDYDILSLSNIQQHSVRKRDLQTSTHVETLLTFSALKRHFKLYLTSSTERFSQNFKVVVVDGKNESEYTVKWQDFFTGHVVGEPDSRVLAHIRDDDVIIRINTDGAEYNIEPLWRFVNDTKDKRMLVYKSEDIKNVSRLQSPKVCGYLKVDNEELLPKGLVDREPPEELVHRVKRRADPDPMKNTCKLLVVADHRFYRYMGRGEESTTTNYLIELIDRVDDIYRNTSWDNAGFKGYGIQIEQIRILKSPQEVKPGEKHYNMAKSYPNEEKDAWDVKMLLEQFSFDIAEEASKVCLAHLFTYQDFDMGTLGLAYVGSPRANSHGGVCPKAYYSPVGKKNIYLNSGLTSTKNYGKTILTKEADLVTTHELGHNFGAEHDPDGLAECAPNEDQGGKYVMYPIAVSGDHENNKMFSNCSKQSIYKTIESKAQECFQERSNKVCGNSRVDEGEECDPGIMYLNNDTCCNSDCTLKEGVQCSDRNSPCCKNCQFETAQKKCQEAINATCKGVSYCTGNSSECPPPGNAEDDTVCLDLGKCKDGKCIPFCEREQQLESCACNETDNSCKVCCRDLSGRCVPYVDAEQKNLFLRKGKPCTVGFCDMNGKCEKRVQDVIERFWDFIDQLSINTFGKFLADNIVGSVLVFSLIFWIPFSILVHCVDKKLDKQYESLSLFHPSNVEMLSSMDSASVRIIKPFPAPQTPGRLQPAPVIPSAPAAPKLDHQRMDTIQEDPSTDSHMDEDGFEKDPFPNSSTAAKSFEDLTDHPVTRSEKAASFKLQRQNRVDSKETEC

[18] = ADAM10 protease inhibitors, dose response, selectivity assay for ADAM17 exosite inhibitor project, biochemical, FRET peptide substrate, recombinant human ADAM10 (AID 743259);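 further: ADAM10 enzyme cleaving a FRET peptide substrate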
[19] = target: Luciferin 4-monooxygenase (Photinus pyralis, UniProt P08659); assay: Counter Screen for Luciferase-based Assay Positives. [Related pubchem assays: 620, 618, 411 ]
HT-1080 = assay: cytotoxicity in HT1080 fibrosarcoma cells, cell-based, fluorescence readout (AID 620); assay type: functional; conditions: Homo sapiens
Cytochrome P450 2D6 = Cytochrome P450 2D6 (Homo sapiens, UniProt P10635);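 further: CYP2D6 member of a cytochrome P450 panel assay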
Cytochrome P450 2C9 = Cytochrome P450 2C9 (Homo sapiens, UniProt P11712)
[20] = NIH-3T3 fibroblast cytotoxicity, dose response, cytotoxicity control, cell-based, fluorescence, Alamar Blue, secondary assay (AID 2327); assay type: functional;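 further: NIH-3T3 mouse fibroblasts cultured with fluconazole at 8 µg/mL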
cells [21] = assay type: functional, cell-based
[22] = C. albicans growth with fluconazole, confirmation, fluorescence, retest (AID 2467); assay type: functional, cell-based
cells [23] = assay type: functional, cell-based; remark: listed apart in the source
[24] = target: Voltage-gated inwardly rectifying potassium channel KCNH2 (Homo sapiens, UniProt Q12809); assay: hERG protection from proarrhythmic block, potency, dose response, cell-based, thallium flux (AID 2121); assay type: ADME
[25] = target: Aryl hydrocarbon receptor (Homo sapiens, UniProt P35869); assay: Luminescence-based cell-based high throughput dose response assay for activators of the Aryl Hydrocarbon Receptor (AHR). [Related pubchem assays: 2796 (Primary screen (AHR activators in singlicate)), 2845 (Confirmation screen (AHR activators in triplicate)), 434939 (Counterscreen (PXR activators in triplicate)), 2804 (Summary (AHR activators))]; assay type: ADME
Mucolipin-3 = Mucolipin-3 (Homo sapiens, UniProt Q8TDD5); assay: Dose response cell-based high-throughput screening assay for agonists of the transient receptor potential channel ML3 (TRPML3). [Related pubchem assays: 1526, 1424, 1448 ]; assay type: functional
Ion channel NompC = Ion channel NompC (Danio rerio, UniProt Q7T1G6); assay: Fluorescence counterscreen assay for TRPML3 agonists: dose response cell-based high-throughput screening assay to identify agonists of the transient receptor potential channel N1 (TRPN1). [Related pubchem assays: 1526, 1424, 1448 ]; assay type: functional
[26] = target: T3, Long-chain-fatty-acid--AMP ligase FadD28 (Mycobacterium tuberculosis, UniProt P9WQ59); assay: Fluorescence polarization aasay to screen for inhibitors that compete for the binding of FadD28 to a bisubstrate Measured in Biochemical System Using Plate Reader - 2147-01_Inhibitor_Dose_CherryPick_Activity.; assay type: functional, Mycobacterium tuberculosis H37Rv
T3 sequence (P9WQ59 whole entry): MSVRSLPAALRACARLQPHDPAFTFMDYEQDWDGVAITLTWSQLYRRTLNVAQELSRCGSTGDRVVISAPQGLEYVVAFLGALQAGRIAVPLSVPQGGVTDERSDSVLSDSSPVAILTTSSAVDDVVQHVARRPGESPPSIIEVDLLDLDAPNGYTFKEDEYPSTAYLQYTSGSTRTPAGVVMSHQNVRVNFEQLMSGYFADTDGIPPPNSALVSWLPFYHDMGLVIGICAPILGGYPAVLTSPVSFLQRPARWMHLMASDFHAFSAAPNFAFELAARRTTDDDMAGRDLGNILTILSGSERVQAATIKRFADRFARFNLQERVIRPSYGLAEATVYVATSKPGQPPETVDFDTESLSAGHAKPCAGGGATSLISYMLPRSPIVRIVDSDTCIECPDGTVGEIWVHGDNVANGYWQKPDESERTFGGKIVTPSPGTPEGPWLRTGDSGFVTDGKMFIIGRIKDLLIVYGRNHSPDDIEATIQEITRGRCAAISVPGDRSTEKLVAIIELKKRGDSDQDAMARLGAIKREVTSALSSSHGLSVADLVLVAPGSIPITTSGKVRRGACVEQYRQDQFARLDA

[27] = target: Potassium voltage-gated channel subfamily KQT member 2 (Rattus norvegicus, UniProt O88943); assay: Mode of action assay - current amplitude concentration response for derivatives of ZTZ240, a potentiator of KCNQ2 potassium channels. [Related pubchem assays: 2258 (Summary assay for the KCNQ2 potentiators.), 2239 (Primary HTS assay for KCNQ2 potentiators with 305606 compounds tested, and 1644 are found to be active.)]; assay type: functional
Potassium voltage-gated channel subfamily KQT member 2, sequence (O88943 whole entry): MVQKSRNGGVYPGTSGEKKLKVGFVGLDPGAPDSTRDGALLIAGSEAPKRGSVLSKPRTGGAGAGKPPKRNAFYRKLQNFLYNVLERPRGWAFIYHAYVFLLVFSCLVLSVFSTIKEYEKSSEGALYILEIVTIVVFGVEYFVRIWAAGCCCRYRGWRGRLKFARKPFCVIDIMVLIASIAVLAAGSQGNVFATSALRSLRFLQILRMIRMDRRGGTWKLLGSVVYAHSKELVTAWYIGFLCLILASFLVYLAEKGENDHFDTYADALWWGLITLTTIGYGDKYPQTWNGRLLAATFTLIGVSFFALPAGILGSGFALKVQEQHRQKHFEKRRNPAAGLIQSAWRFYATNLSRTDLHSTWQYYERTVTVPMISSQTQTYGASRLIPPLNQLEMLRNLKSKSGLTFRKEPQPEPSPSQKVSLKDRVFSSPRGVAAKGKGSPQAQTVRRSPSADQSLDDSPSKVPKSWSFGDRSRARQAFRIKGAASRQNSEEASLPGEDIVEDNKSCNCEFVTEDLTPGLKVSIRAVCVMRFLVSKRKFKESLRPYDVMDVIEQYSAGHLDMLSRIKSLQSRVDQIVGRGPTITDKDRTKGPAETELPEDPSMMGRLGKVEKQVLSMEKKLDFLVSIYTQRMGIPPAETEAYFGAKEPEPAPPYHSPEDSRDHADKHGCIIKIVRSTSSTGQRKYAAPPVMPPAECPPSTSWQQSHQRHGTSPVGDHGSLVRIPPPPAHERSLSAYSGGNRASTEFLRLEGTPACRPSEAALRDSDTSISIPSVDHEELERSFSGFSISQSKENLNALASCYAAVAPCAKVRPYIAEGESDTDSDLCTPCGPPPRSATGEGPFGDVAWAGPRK

[28] = HEp-2 cell cytotoxicity, dose response, cytotoxicity control for RSV inhibitor project, HTS (AID 2410); assay type: functional; conditions: human respiratory syncytial virus
[29] = target: T4, Mannose-6-phosphate isomerase (Homo sapiens, UniProt P34949); assay: inhibitors of human PMI, primary screen, biochemical, fluorescence intensity, coupled assay (AID 1209)
T4 sequence (P34949 whole entry): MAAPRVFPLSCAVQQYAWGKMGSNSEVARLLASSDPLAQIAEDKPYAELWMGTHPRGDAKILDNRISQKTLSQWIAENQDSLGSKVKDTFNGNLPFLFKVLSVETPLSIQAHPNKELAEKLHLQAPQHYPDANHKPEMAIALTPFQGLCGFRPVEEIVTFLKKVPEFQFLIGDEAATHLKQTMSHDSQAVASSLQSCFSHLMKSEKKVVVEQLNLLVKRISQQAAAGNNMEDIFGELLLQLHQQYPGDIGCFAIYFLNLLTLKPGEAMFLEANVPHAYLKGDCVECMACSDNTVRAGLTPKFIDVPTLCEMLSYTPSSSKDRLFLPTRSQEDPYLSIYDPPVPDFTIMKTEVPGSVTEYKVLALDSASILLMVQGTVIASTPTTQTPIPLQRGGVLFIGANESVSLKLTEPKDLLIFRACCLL

[30] = Luminescence-based dose response cell-based high throughput screening assay for cytotoxic compounds using the IEC-6 intestinal epithelial cell line. [Related pubchem assays: 1858 (Summary AID.), 1825 (Counterscreen.), 1907 (Confirmation screen.)]; assay type: functional
[31] = target: T4, Mannose-6-phosphate isomerase; assay: human PMI inhibitors, high substrate, primary screen, biochemical, fluorescence intensity, high mannose 6-phosphate (AID 1220)
[32] = target: Photoreceptor-specific nuclear receptor (Homo sapiens, UniProt Q9Y5X4); assay type: functional, cell-based;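 further: CHO-S cells with Gal4-NCOR and VP16-NR2E3 two-hybrid luciferase reporter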
cells [33] = assay: cells
[34] = A549 cell cytotoxicity, dose response, CellTiter-Glo luminescence, dry powder, set 17 (AID 1117284); assay type: functional, cell-based

## CCC1CCCCN1CCCNC(=O)c1cc2c(Cl)nc3ccccc3c2s1 (stereo not drawn)
Vero [1]
  CC50: 12.7 µM (active)
Vero [2]
  IC50: 8.75 µM (active)

## O=C(Cn1cnc2c(nnn2Cc2ccccc2)c1=O)c1ccc(Cl)cc1
[3]
  IC50: 1.2 µM (active)

## Cc1cc(OCC(=O)Nc2cc(-c3nn4c(C)nnc4s3)ccc2C)ccc1Cl
[4]
  EC50: 10.1 µM (not active)
Genome polyprotein
  IC50: > 49.8 µM (not active)
[5]
  EC50: 9.05 µM (active)
[6]
  EC50: 8.97 µM (active)

## CCOC(=O)Nc1ccc2c(c1)Nc1ccccc1S2
[7]
  EC50: < 0.1 µM (active)
NADPH oxidase 1 [8]
  IC50: 0.915 µM (active)
NADPH oxidase 1 [9]
  IC50: 0.054 µM (active)
[10]
  EC50: > 60 µM (not active)
[11]
  IC50: 45 µM (active)

## COc1cccc(-c2nc(-c3ccc(NC(=O)Cc4ccccc4OC)cc3)no2)c1
[12]
  IC50: > 35 µM (not active)
[13]
  IC50: 0.733 µM (active)

## O=[N+]([O-])c1ccc2[nH]c(CCCc3nc4cc([N+](=O)[O-])ccc4[nH]3)nc2c1
SUMO-activating enzyme
  IC50: > 100 µM (inactive)
[14]
  IC50: 6.53 µM (active)

## COc1ccc(C(CC(=O)c2ccc(C)cc2)Nc2ccc([N+](=O)[O-])cc2)cc1 (stereo not drawn)
[15]
  IC50: > 50 µM (not active)
[16]
  IC50: 2.05 µM (active)
[17]
  IC50: > 69.5 µM (inactive)
[18]
  IC50: 26.8 µM (inactive)

## COc1ccc(-c2nsc3c(N4CCCCC4)ncnc23)cc1
[19]
  EC50: 4.6 µM (active)
HT-1080
  EC50: > 50 µM (not active)
Cytochrome P450 2D6
  AC50: 15.8 µM (inconclusive)
Cytochrome P450 2C9
  AC50: 5.01 µM (inconclusive)

## COc1ccc(NC(=O)C(=O)NNC(=O)c2ccc(Cl)cc2Cl)cc1
[20]
  EC50: > 150 µM (inactive)
Cells [21]
  EC50: > 350 µM (not active)
[22]
  EC50: 2.28 µM (active)
Cells [23]
  EC50: > 350 µM (not active)
[24]
  EC50: 0.5 µM (active)

## COc1ccccc1NC(=O)Nc1cccnc1
[25]
  EC50: 2.25 µM (active)

## CC1CCCC(C)N1C(=C(Cl)Cl)C(=C1SCCS1)[N+](=O)[O-] (stereo not drawn)
Mucolipin-3
  EC50: 6.91 µM (active)
Ion channel NompC
  EC50: > 29.9 µM (not active)
[26]
  AC50: > 100 µM (inactive)

## O=C(Nc1ccc(Br)nc1)c1ccc(F)c(F)c1
[27]
  EC50: 3.72 µM (active)

## Cc1cccc(/C=N/Nc2cc(N3CCOCC3)nc(N3CCOCC3)n2)c1
[28]
  CC50: 24.6 µM (active)
[29]
  IC50: > 50 µM (not active)
[7]
  EC50: < 0.1 µM (active)
[30]
  IC50: 0.692 µM (active)
[10]
  EC50: 1.6 µM (active)
[31]
  IC50: > 50 µM (not active)
[32]
  IC50: 1.88 µM (active)
Cells [33]
  EC50: 0.077 µM (active)

## C[C@H]1CN([C@@H](C)CO)S(=O)(=O)c2ccc(-c3ccc(O)cc3)cc2O[C@H]1CN(C)Cc1ccc(-c2ccccc2)cc1
[34]
  AC50: > 52 µM (inactive)
